These results are taken from PubChem BioAssay AID2060901 (Molecular Pharmacology Branch, DTP, NCI, 2025).

This assay concerns 422866-222-R5-J1-PDC complex spheroids viability. In words: Anticancer human tumor 422866-222-R5-J1-PDC patient-derived pancreatic adenocarcinoma cell line growth inhibition [RAS]. The following applies: for viability, T/C: stronger effect = lower value. Summed up: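 Tumour cells grown as complex spheroids with HUVEC endothelial cells and mesenchymal stem cells, treated with RAS pathway inhibitor combinations. Each agent spans half-log steps from near clinical Cmax, or 10 microM where Cmax is unknown.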

[1] abbreviates: curve of first compound, second compound 0.000949 µM.
Setting [2] is: curve of first compound, second compound 0.003 µM.
[3] abbreviates: curve of first compound, second compound 0.00949 µM.
The mark [4] stands for this setting: curve of first compound, second compound 0.03 µM.
Where [5] appears, read: curve of first compound, second compound 0.0949 µM.
The mark [6] stands for this setting: curve of first compound, second compound 0.3 µM.
The mark [7] stands for this setting: second compound 0.000949 µM, first compound 0.0316 µM.
The mark [8] stands for this setting: second compound 0.000949 µM, first compound 0.1 µM.
The mark [9] stands for this setting: second compound 0.000949 µM, first compound 0.316 µM.
Where [10] appears, read: second compound 0.000949 µM, first compound 1 µM.
Setting [11] is: second compound 0.000949 µM, first compound 3.16 µM.
Setting [12] is: second compound 0.000949 µM, first compound 10 µM.
Setting [13] is: second compound 0.003 µM, first compound 0.0316 µM.
Setting [14] is: second compound 0.003 µM, first compound 0.1 µM.
The mark [15] stands for this setting: second compound 0.003 µM, first compound 0.316 µM.
Where [16] appears, read: second compound 0.003 µM, first compound 1 µM.
Setting [17] is: second compound 0.003 µM, first compound 3.16 µM.
Setting [18] is: second compound 0.003 µM, first compound 10 µM.
The mark [19] stands for this setting: second compound 0.00949 µM, first compound 0.0316 µM.
The mark [20] stands for this setting: second compound 0.00949 µM, first compound 0.1 µM.
Setting [21] is: second compound 0.00949 µM, first compound 0.316 µM.
[22] abbreviates: second compound 0.00949 µM, first compound 1 µM.
Where [23] appears, read: second compound 0.00949 µM, first compound 3.16 µM.
The mark [24] stands for this setting: second compound 0.00949 µM, first compound 10 µM.
Where [25] appears, read: second compound 0.03 µM, first compound 0.0316 µM.
The mark [26] stands for this setting: second compound 0.03 µM, first compound 0.1 µM.
Where [27] appears, read: second compound 0.03 µM, first compound 0.316 µM.
Where [28] appears, read: second compound 0.03 µM, first compound 1 µM.
The mark [29] stands for this setting: second compound 0.03 µM, first compound 3.16 µM.
Where [30] appears, read: second compound 0.03 µM, first compound 10 µM.
The mark [31] stands for this setting: second compound 0.0949 µM, first compound 0.0316 µM.
[32] abbreviates: second compound 0.0949 µM, first compound 0.1 µM.
Setting [33] is: second compound 0.0949 µM, first compound 0.316 µM.
Where [34] appears, read: second compound 0.0949 µM, first compound 1 µM.
Setting [35] is: second compound 0.0949 µM, first compound 3.16 µM.
Setting [36] is: second compound 0.0949 µM, first compound 10 µM.
[37] abbreviates: second compound 0.3 µM, first compound 0.0316 µM.
The mark [38] stands for this setting: second compound 0.3 µM, first compound 0.1 µM.
Setting [39] is: second compound 0.3 µM, first compound 0.316 µM.
Setting [40] is: second compound 0.3 µM, first compound 1 µM.
The mark [41] stands for this setting: second compound 0.3 µM, first compound 3.16 µM.
Where [42] appears, read: second compound 0.3 µM, first compound 10 µM.

A value given as a limit tells only on which side of the number the result lay.
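Note: spheroids exposed to compounds for 7 days.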
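Throughout, for viability, T/C: 100% = DMSO vehicle control viability.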

`CC(=O)OC12COC1CC(O)C1(C)C(=O)C(O)C3=C(C)C(OC(=O)C(O)C(NC(=O)OC(C)(C)C)c4ccccc4)CC(O)(C(OC(=O)c4ccccc4)C21)C3(C)C` (stereo unspecified) + CCn1c(-c2cc(N3CCN(C)CC3)cnc2C(C)OC)c2c3cc(ccc31)-c1csc(n1)CC(NC(=O)C1CC1C)C(=O)N1CCCC(N1)C(=O)OCC(C)(C)C2: the IC50 under setting [1] was under 31.6 nM; the IC50 under setting [2] was under 31.6 nM; the IC50 under setting [3] was under 31.6 nM; the IC50 under setting [4] is under 31.6 nM; the half-maximal inhibitory concentration (IC50) under setting [5] is under 31.6 nM; the IC50 under setting [6] was under 31.6 nM. The viability, T/C was 23.3% under setting [7]; 25.6% under setting [8]; 26.9% under setting [9]; 31.8% under setting [10]; 29.4% under setting [11]; 23.2% under setting [12]. Moreover, the viability, T/C was 18.8% under setting [13]; 19.6% under setting [14]; 18.6% under setting [15]; 20.6% under setting [16]; 21.5% under setting [17]; 20.5% under setting [18]. Also, the viability, T/C is 14.5% under setting [19]; 15.8% under setting [20]; 16.4% under setting [21]; 17.7% under setting [22]; 17.3% under setting [23]; 18.3% under setting [24]. In addition, the viability, T/C runs as follows: under setting [25], 16.3%; under setting [26], 18.6%; under setting [27], 16.1%; under setting [28], 17%; under setting [29], 16.9%; under setting [30], 19.4%. In addition, the viability, T/C was 17.9% under setting [31]; 16.5% under setting [32]; 18.7% under setting [33]; 17.8% under setting [34]; 17% under setting [35]; 22.1% under setting [36]. Also, the viability, T/C is 16.7% under setting [37]; 17.1% under setting [38]; 18.4% under setting [39]; 17.8% under setting [40]; 19.9% under setting [41]; 21.5% under setting [42].

Turning to `Cc1nc(N2CCC3(CC2)COC(C)C3N)c(CO)nc1Sc1ccnc(N)c1Cl` (stereo unspecified), the viability, T/C runs as follows: (compound 0.1 µM) 65% [middle of 4 runs]; (compound 0.316 µM) 51% [middle of 4 runs]; (compound 1 µM) 52.8% [middle of 4 runs]; (compound 3.16 µM) 41.1% [middle of 4 runs]; (compound 10 µM) 43.5% [middle of 4 runs].

In the case of `CCn1c(-c2cccnc2C(C)OC)c2c3cc(ccc31)N1CCOC(CC(NC(=O)C(C(C)C)N(C)C(=O)C3(F)CCN(C(=O)C#CC(C)(C)N(C)C)CC3)C(=O)N3CCCC(N3)C(=O)OCC(C)(C)C2)C1` (stereo unspecified), the viability, T/C (compound 0.000949 µM) was 25.9% [middle of 8 runs]; the viability, T/C (compound 0.003 µM) is 23.3% [middle of 8 runs]; the viability, T/C (compound 0.00949 µM) was 21.9% [middle of 8 runs]; the viability, T/C (compound 0.03 µM) is 22.1% [middle of 8 runs]; the viability, T/C (compound 0.0949 µM) was 22.5% [middle of 8 runs]; the viability, T/C (compound 0.3 µM) was 20.2% [middle of 8 runs]. The IC50 (compound alone, run of 05/20/2024) was under 0.949 nM.

Turning to `NC1c2ccccc2OC12CCN(c1cnc3c(N4CCCc5ncccc54)n[nH]c3n1)CC2` (stereo unspecified) + CCn1c(-c2cccnc2C(C)OC)c2c3cc(ccc31)N1CCOC(CC(NC(=O)C(C(C)C)N(C)C(=O)C3(F)CCN(C(=O)C#CC(C)(C)N(C)C)CC3)C(=O)N3CCCC(N3)C(=O)OCC(C)(C)C2)C1, the 50% inhibitory concentration (IC50) under setting [1] was under 31.6 nM; the half-inhibitory concentration (IC50) under setting [2] is under 31.6 nM; the IC50 under setting [3] is under 31.6 nM; the IC50 under setting [4] was under 31.6 nM; the half-maximal inhibitory concentration (IC50) under setting [5] was under 31.6 nM; the half-maximal inhibitory concentration (IC50) under setting [6] is under 31.6 nM. Moreover, the viability, T/C reads like this: under setting [7], 20.1%; under setting [8], 18.2%; under setting [9], 14.9%; under setting [10], 16.1%; under setting [11], 18.1%; under setting [12], 15.7%. Further, the viability, T/C by setting is: under setting [13], 16%; under setting [14], 12.6%; under setting [15], 14.4%; under setting [16], 14.4%; under setting [17], 13.5%; under setting [18], 15.1%. Also, the viability, T/C was 17.7% under setting [19]; 14.1% under setting [20]; 13.7% under setting [21]; 14.3% under setting [22]; 13.8% under setting [23]; 15.8% under setting [24]. Besides, the viability, T/C runs as follows: under setting [25], 15.8%; under setting [26], 12.8%; under setting [27], 14.3%; under setting [28], 12.9%; under setting [29], 12.9%; under setting [30], 13.6%. Moreover, the viability, T/C under setting [31] is 12.8%; the viability, T/C under setting [32] is 13.3%; the viability, T/C under setting [33] was 13.6%; the viability, T/C under setting [34] was 13%; the viability, T/C under setting [35] is 12.6%; the viability, T/C under setting [36] is 13.4%. Moreover, the viability, T/C runs as follows: under setting [37], 11.3%; under setting [38], 13.4%; under setting [39], 13.9%; under setting [40], 11.3%; under setting [41], 14.2%; under setting [42], 17.4%.

A word on the IC50: it is the point on the concentration scale where inhibition reaches its midpoint. By viability, T/C is commonly meant the result in the treated group divided by that in the control group, in per cent.
